Results on 16 compounds are retold here after US10045983B2, “Heteroaryl pyridone and aza-pyrodine compounds” (Genentech, Inc., priority 2011, dated 2018).

The first assay in a line: CD69 Whole Blood Assay (CD69 Hu Blood FACS). The following applies: Lymphocyte; human whole blood, anti-IgM activated B lymphocytes, FACS; IC70; Table 1; read-out: CD69 Hu Blood FACS IC70. It is filed as cell-based, human. An excerpt: A CD69 Whole Blood Assay can be conducted on Formula I compounds to determine the ability of compounds to inhibit the production of CD69 by B lymphocytes in human whole blood activated by crosslinking surface IgM with goat F(ab′)2 anti-human IgM (Example 907). CD69 is a type II C-type lectin involved in lymphocyte migration and cytokine secretion. CD69 expression represents one of the earliest available indicators of leukocyte activation and its rapid induction occurs through transcriptional activation (Vazquez et al (2009) Jour. of Immunology Published Oct. 19, 2009, doi:10.4049/jimmunol.0900839). Concentration-dependent inhibition of antigen receptor stimulation by selective Btk inhibitors induces cell surface expression of the lymphocyte activation marker CD69 (Honigberg et al (2010) Proc. Natl. Acad. Sci. 107(29):13075-13080). Thus, CD69 inhibition by selective Btk inhibitors may be correlated with therapeutic efficacy of certain B-cell disorders.
By IC70 is commonly meant the concentration at which the effect reaches the 70% level. For `CN1CCn2nc(Nc3cc(-c4ccnc(N5CCn6c(cc7c6[C@H]6CC[C@@H]7C6)C5=O)c4CO)cn(C)c3=O)cc2C1` (stereo in doubt) [Example 167, 2-(3-(hydroxymethyl)-4-(1-methyl-5-(5-methyl-4,5,6,7-tetrahydropyrazolo[1,5-a]pyrazin-2-ylamino)-6-oxo-1,6-dihydropyridin-3-yl)pyridin-2-yl)-3,4,6,7,8,9-hexahydro-6,9-methanopyrazino[1,2-a]indol-1(2H)-one], the IC70 stood at 119 nM.

As for `CN1CCn2nc(Nc3cc(-c4ccnc(N5CCn6c(cc7c6[C@@H]6CC[C@H]7C6)C5=O)c4CO)cn(C)c3=O)cc2C1` (stereo in doubt) [Example 170, 2-(3-(hydroxymethyl)-4-(1-methyl-5-(5-methyl-4,5,6,7-tetrahydropyrazolo[1,5-a]pyrazin-2-ylamino)-6-oxo-1,6-dihydropyridin-3-yl)pyridin-2-yl)-3,4,6,7,8,9-hexahydro-6,9-methanopyrazino[1,2-a]indol-1(2H)-one], the IC70 came to 335 nM.

Consider `Cn1cc(-c2cncc(N3CCn4c(cc5c4CCCC5)C3=O)c2CO)cc(Nc2ccc(N3CCN(C4COC4)CC3)cn2)c1=O` [Example 101, 2-(4-(hydroxymethyl)-5-(1-methyl-5-(5-(4-(oxetan-3-yl)piperazin-1-yl)pyridin-2-ylamino)-6-oxo-1,6-dihydropyridin-3-yl)pyridin-3-yl)-3,4,6,7,8,9-hexahydropyrazino[1,2-a]indol-1(2H)-one], for which the IC70 came out at 132 nM.

With `CN1CCN(c2ccc(Nc3cc(-c4cncc(N5CCn6c(cc7c6CCCC7)C5=O)c4CO)cn(C)c3=O)nc2)CC1` [Example 102, 2-(4-(Hydroxymethyl)-5-(1-methyl-5-(5-(4-methylpiperazin-1-yl)pyridin-2-ylamino)-6-oxo-1,6-dihydropyridin-3-yl)pyridin-3-yl)-3,4,6,7,8,9-hexahydropyrazino[1,2-a]indol-1(2H)-one], the IC70 was 132 nM.

On to `Cn1cc(-c2ccnc(N3CCn4c(cc5c4CCCC5)C3=O)c2CO)cc(Nc2ccc(N3CCN(C4COC4)CC3)cn2)c1=O` [Example 103, 2-(3-(Hydroxymethyl)-4-(1-methyl-5-(5-(4-(oxetan-3-yl)piperazin-1-yl)pyridin-2-ylamino)-6-oxo-1,6-dihydropyridin-3-yl)pyridin-2-yl)-3,4,6,7,8,9-hexahydropyrazino[1,2-a]indol-1(2H)-one], for which the concentration for an effect of 70% (IC70) was 77.6 nM.

As for `Cn1cc(-c2nccc(N3CCn4c(cc5c4CCCC5)C3=O)c2CO)cc(Nc2ccc(N3CCN(C4COC4)CC3)cn2)c1=O` [Example 104, 2-(3-(Hydroxymethyl)-2-(1-methyl-5-(5-(4-(oxetan-3-yl)piperazin-1-yl)pyridin-2-ylamino)-6-oxo-1,6-dihydropyridin-3-yl)pyridin-4-yl)-3,4,6,7,8,9-hexahydropyrazino[1,2-a]indol-1(2H)-one], the IC70 is 793 nM.

With `Cn1cc(-c2cncc(N3CCc4c(sc5c4CCCC5)C3=O)c2CO)cc(Nc2ccc(N3CCN(C4COC4)CC3)cn2)c1=O` [Example 105, 4-Hydroxymethyl-3-[1-methyl-5-({5-[4-(oxetan-3-yl)piperazin-1-yl]pyridine-2-yl}amino)-6-oxo-1,6-dihydropyridin-3-yl]-5-{6-oxo-8-thia-5-azatricyclo-[7.4.0.0^2,7]trideca-1(9),2(7)-dien-5-yl}pyridine], the IC70 came to 65.4 nM.

Regarding `Cn1cc(-c2cncc(N3CCc4c(sc5c4CC(C)(C)C5)C3=O)c2CO)cc(Nc2ccc(N3CCN(C4COC4)CC3)cn2)c1=O` [Example 106], the IC70 is 57.6 nM.

For the compound `Cn1cc(-c2cncc(N3CCn4c(cc5c4CC(C)(C)C5)C3=O)c2CO)cc(Nc2ccc(N3CCN(C4COC4)CC3)cn2)c1=O` [Example 107, 10-[4-[1-Methyl-5-({5-[4-(oxetan-3-yl)piperazin-1-yl]pyridine-2-yl}amino)-6-oxo-1,6-dihydropyridin-3-yl]-4-(hydroxymethyl)pyridin-3-yl]-4,4-dimethyl-1,10-diazatricyclo[6.4.0.0^2,6]dodeca-2(6),7-dien-9-one], the concentration for an effect of 70% (IC70) stood at 21.6 nM.

`Cn1cc(-c2ccnc(N3CCn4c(cc5c4CC(C)(C)C5)C3=O)c2CO)cc(Nc2ccc(N3CCN(C4COC4)CC3)cn2)c1=O` [Example 108, 2-(3-(Hydroxymethyl)-4-(1-methyl-5-(5-(4-(oxetan-3-yl)piperazin-1-yl)pyridin-2-ylamino)-6-oxo-1,6-dihydropyridin-3-yl)pyridin-2-yl)-4,4-dimethyl-1,10-diazatricyclo[6.4.0.0^2,6]dodeca-2(6),7-dien-9-one]: the 70% effect concentration (IC70) was 31.9 nM.

Consider `Cn1cc(-c2ccnc(N3CCc4c(sc5c4CC(C)(C)C5)C3=O)c2CO)cc(Nc2ccc(N3CCN(C4COC4)CC3)cn2)c1=O` [Example 109, 2-(3-(Hydroxymethyl)-4-(1-methyl-5-(5-(4-(oxetan-3-yl)piperazin-1-yl)pyridin-2-ylamino)-6-oxo-1,6-dihydropyridin-3-yl)pyridin-2-yl)-4,4-dimethyl-7-thia-10-azatricyclo[6.4.0.0^2,6]dodeca-1(8),2(6)-dien-9-one], for which the concentration for an effect of 70% (IC70) stood at 50.1 nM.

For the compound `CN1CCN(c2cccc(Nc3cc(-c4ccnc(N5CCn6c(cc7c6CCCC7)C5=O)c4CO)cn(C)c3=O)n2)CC1` [Example 110, 2-(3-(Hydroxymethyl)-4-(1-methyl-5-(6-(4-methylpiperazin-1-yl)pyridine-2-ylamino)-6-oxo-1,6-dihydropyridin-3-yl)pyridin-2-yl)-3,4,6,7,8,9-hexahydropyrazino[1,2-a]indol-1(2H)-one], the IC70 was 2700 nM.

Regarding `Cn1cc(-c2ccnc(N3CCn4c(cc5c4CCCC5)C3=O)c2CO)cc(Nc2ccc(C(=O)N3CCOCC3)cn2)c1=O` [Example 111, 2-(3-(Hydroxymethyl)-4-(1-methyl-5-(5-(morpholine-4-carbonyl)pyridin-2-ylamino)-6-oxo-1,6-dihydropyridin-3-yl)pyridin-2-yl)-3,4,6,7,8,9-hexahydropyrazino[1,2-a]indol-1(2H)-one], the concentration for an effect of 70% (IC70) is 131 nM.

Turning to `Cn1cc(-c2cncc(N3CCc4c(cc5n4CCCC5)C3=O)c2CO)cc(Nc2ccc(N3CCN(C4COC4)CC3)cn2)c1=O` [Example 112, 2-(4-(Hydroxymethyl)-5-(1-methyl-5-(5-(4-(oxetan-3-yl)piperazin-1-yl)pyridin-2-ylamino)-6-oxo-1,6-dihydropyridin-3-yl)pyridin-3-yl)-3,4,6,7,8,9-hexahydropyrido[3,4-b]indolizin-1(2H)-one], the IC70 was 492 nM.

Take `CN1CCn2nc(Nc3cc(-c4ccnc(N5CCn6c(cc7c6CCCC7)C5=O)c4CO)cn(C)c3=O)cc2C1` [Example 113, 2-(3-(Hydroxymethyl)-4-(1-methyl-5-(5-methyl-4,5,6,7-tetrahydropyrazolo[1,5-a]pyrazin-2-ylamino)-6-oxo-1,6-dihydropyridin-3-yl)pyridin-2-yl)-3,4,6,7,8,9-hexahydropyrazino[1,2-a]indol-1(2H)-one]: the IC70 was 62.5 nM.

Staying with this assay, now noted: Lymphocyte; human whole blood, anti-IgM activated B lymphocytes, FACS; IC70; Table 2 (unit inferred); read-out: CD69 Hu Blood FACS (IC70).
Regarding `COC[C@H](C)N1CCn2nc(Nc3cc(-c4ccnc(N5CCn6c(cc7c6CC(C)(C)C7)C5=O)c4CO)cn(C)c3=O)cc2C1` (single isomer, unassigned) [Example 303], the IC70 came out at 17.9 nM.
